Assay results published in US8119633B2, “Substituted sulfonamide compounds” (Gruenenthal GmbH, priority 2007, dated 2012).

Target: T1, bradykinin receptor 1 (B1R) of the rat (Rattus norvegicus, UniProt P97583)
T1 construct: expressed in transfected cells; host or cells: CHO K1 cells
T1 sequence (P97583 1-337): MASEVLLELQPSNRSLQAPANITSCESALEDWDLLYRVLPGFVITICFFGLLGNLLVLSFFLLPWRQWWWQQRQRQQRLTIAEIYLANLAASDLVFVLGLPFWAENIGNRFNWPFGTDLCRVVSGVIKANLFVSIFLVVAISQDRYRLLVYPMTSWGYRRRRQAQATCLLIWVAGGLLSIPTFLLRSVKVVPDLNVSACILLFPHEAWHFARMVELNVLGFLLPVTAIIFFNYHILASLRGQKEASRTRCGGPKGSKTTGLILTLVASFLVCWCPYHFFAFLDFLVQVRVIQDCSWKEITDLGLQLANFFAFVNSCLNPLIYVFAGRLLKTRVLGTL
Assay: Functional study on the bradykinin receptor 1 (B1R), rat: FLIPR Ca2+ influx assay
Format: cell-based
Conditions: test substance 10 μM; CHO K1 cells transfected with rat B1R; Des-Arg9-bradykinin at EC80; Ca2+ influx (Fluo-4, FLIPR); read-out: B1R antagonism, rat [10 μM] % inhibition
Excerpt: (§1) The agonistic or antagonistic action of substances can be determined on the bradykinin receptor 1 (B1R) of the species human and rat using the following assay. According to this assay, the Ca^2+ influx through the channel is quantified with the aid of a Ca^2+-sensitive dye (Fluo-4 type, Molecular Probes Europe BV, Leiden, Netherlands) using a Fluorescent Imaging Plate Reader (FLIPR, Molecular Devices, Sunnyvale, USA).
(§2) Chinese hamster ovary cells (CHO K1 cells) which have been stably transfected with the human B1R gene (hB1R cells) or with the B1R gene of the rat (rB1R cells) are used. For functional studies, the cells are plated out on black 96-well plates having a clear base (BD Biosciences, Heidelberg, Germany or Greiner, Frickenhausen, Germany) in a density of 20,000-35,000 cells/well. The cells are incubated overnight at 37° C. and with 5% CO2 in culture medium (hB1R cells: Nutrient Mixture Ham's F12, Gibco Invitrogen GmbH, Karlsruhe, Germany or DMEM, Sigma-Aldrich, Taufkirchen, Germany; rB1R cells: D-MEM/F12, Gibco Invitrogen GmbH, Karlsruhe, Germany), with 10 vol. % FBS (fetal bovine serum, Gibco Invitrogen GmbH, Karlsruhe, Germany or PAN Biotech GmbH, Aidenbach, Germany).
(§3) On the following day, the cells are loaded for 60 minutes at 37° C. with 2.13 μM Fluo-4 (Molecular Probes Europe BV, Leiden, Netherlands) in HBSS buffer (Hank's buffered saline solution, Gibco Invitrogen GmbH, Karlsruhe, Germany) with 2.5 mM probenecid (Sigma-Aldrich, Taufkirchen, Germany) and 10 mM HEPES (Sigma-Aldrich, Taufkirchen, Germany). The plates are then washed twice with HBSS buffer, and HBSS buffer additionally containing 0.1% BSA (bovine serum albumin; Sigma-Aldrich, Taufkirchen, Germany), 5.6 mM glucose and 0.05% gelatin (Merck KGaA, Darmstadt, Germany) is added to the plates. After incubation for a further 20 minutes at room temperature, the plates are inserted into the FLIPR for Ca^2+ measurement. Alternatively, washing is carried out with buffer A (15 mM HEPES, 80 mM NaCl, 5 mM KCl, 1.2 mM CaCl2, 0.7 mM MgSO4, 2 g/l glucose, 2.5 mM probenecid) followed by loading with buffer A with added 2.5 μM Fluo-4 and 0.025% Pluronic F127 (Sigma-Aldrich, Taufkirchen, Germany). The cells are then washed twice with buffer A and incubated for 30 minutes at room temperature with buffer A additionally containing 0.05% BSA and 0.05% gelatin and are then inserted into the FLIPR for Ca^2+ measurement.
(§4) The Ca^2+-dependent fluorescence is measured before and after the addition of substances (λex=488 nm, λem=540 nm). Quantification is carried out by measuring the highest fluorescence intensity (FC, fluorescence counts) over time.
(§5) The FLIPR protocol consists of two substance additions. Test substances (10 μM) are first pipetted onto the cells and the Ca^2+ influx is compared with the control (hB1R: Lys-Des-Arg^9-bradykinin>=0.5 nM; rB1R: Des-Arg^9-bradykinin 10 μM). This gives the activation in %, based on the Ca^2+ signal after addition of Lys-Des-Arg^9-bradykinin (>=0.5 nM) or Des-Arg^9-bradykinin (10 μM).
(§6) After 10-20 minutes' incubation, Lys-Des-Arg^9-bradykinin (hB1R) or Des-Arg^9-bradykinin (rB1R) is applied in the concentration of the EC80, and the influx of Ca^2+ is likewise determined.
(§7) Antagonists lead to suppression of the Ca^2+ influx. The % inhibition compared with the maximum achievable inhibition is calculated.
(§8) In order to determine the IC50 value, the substances are added in various concentrations. Duplicate or triplicate determinations (n=2 or n=3) are carried out, and these are repeated in at least one further independent experiment (N>=2).

Point of comparison: `CN(C)C(c1ccc(Cl)cc1)C1CCC(CCNC(=O)c2c(N(C)S(=O)(=O)c3ccc(Cl)c(Cl)c3)sc3c2CCCC3)CC1` (centres unmarked) [Example 50, N-(2-(4-((4-chlorophenyl)(dimethylamino)methyl)cyclohexyl)ethyl)-2-(3,4-dichloro-N-methylphenylsulfonamido)-4,5,6,7-tetrahydrobenzo[b]thiophene-3-carboxamide], inhibition at 10 µM 11%. Against it:
- COc1ccc(S(=O)(=O)N2CCc3ccccc3C2CC(=O)NC2CCC(C(c3ccccc3)N(C)C)CC2)cc1 (centres unmarked) [Example 9, N-[4-(dimethylamino-phenyl-methyl)-cyclohexyl]-2-[2-(4-methoxy-benzenesulfonyl)-1,2,3,4-tetrahydro-isoquinolin-1-yl]-acetamide] — lower, 0%
- CN(C)C(c1ccccc1)C1CCC(NC(=O)CC2c3ccccc3CCN2S(=O)(=O)c2ccc(Cl)c(Cl)c2)CC1 (centres unmarked) [Example 10, 2-[2-(3,4-dichloro-benzenesulfonyl)-1,2,3,4-tetrahydro-isoquinolin-1-yl]-N-[4-(dimethylamino-phenyl-methyl)-cyclohexyl]-acetamide] — lower, 0%
- CN(C)C(c1ccccc1)C1CCC(NC(=O)c2c(N(C)S(=O)(=O)c3ccc(Cl)c(Cl)c3)sc3c2CCCC3)CC1 (centres unmarked) [Example 12, 2-[(3,4-dichloro-benzenesulfonyl)-methyl-amino]-4,5,6,7-tetrahydrobenzo[b]thiophene-3-carboxylic acid [4-(dimethylamino-phenyl-methyl)cyclohexyl]-amide] — lower, 0%
- CN(C)C(c1cccs1)C1CCC(CNC(=O)c2ccccc2N(C)S(=O)(=O)c2ccc(Cl)c(Cl)c2)CC1 (centres unmarked) [Example 42, 2-[(3,4-dichloro-benzenesulfonyl)-methyl-amino]-N-[4-(dimethylamino-thiophen-2-yl-methyl)-cyclohexylmethyl]-benzamide] — lower, 3%
- CN(C)C(c1ccccc1)C1CCC(CNC(=O)c2c(N(C)S(=O)(=O)c3ccc(Cl)c(Cl)c3)sc3c2CCCC3)CC1 (centres unmarked) [Example 46, 2-[(3,4-dichloro-benzenesulfonyl)-methyl-amino]-4,5,6,7-tetrahydrobenzo[b]thiophene-3-carboxylic acid [4-(dimethylamino-phenyl-methyl)cyclohexylmethyl]-amide] — lower, -9%
- CN(C)C(c1ccc(F)cc1)C1CCC(CNC(=O)c2c(N(C)S(=O)(=O)c3ccc(Cl)c(Cl)c3)sc3c2CCCC3)CC1 (centres unmarked) [Example 47, 2-[(3,4-dichloro-benzenesulfonyl)-methyl-amino]-4,5,6,7-tetrahydrobenzo[b]thiophene-3-carboxylic acid {4-[dimethylamino-(4-fluoro-phenyl)methyl]-cyclohexylmethyl}-amide] — higher, 12%
- CN(C)C(c1ccc(Cl)cc1)C1CCC(CNC(=O)c2c(N(C)S(=O)(=O)c3ccc(Cl)c(Cl)c3)sc3c2CCCC3)CC1 (centres unmarked) [Example 48, 2-[(3,4-dichloro-benzenesulfonyl)-methyl-amino]-4,5,6,7-tetrahydrobenzo[b]thiophene-3-carboxylic acid {4-[(4-chloro-phenyl)-dimethylamino-methyl]-cyclohexylmethyl}-amide] — higher, 19%
- CN(C)C(c1cccs1)C1CCC(CNC(=O)c2c(N(C)S(=O)(=O)c3ccc(Cl)c(Cl)c3)sc3c2CCCC3)CC1 (centres unmarked) [Example 49, 2-[(3,4-dichloro-benzenesulfonyl)-methyl-amino]-4,5,6,7-tetrahydrobenzo[b]thiophene-3-carboxylic acid [4-(dimethylamino-thiophen-2-yl-methyl)cyclohexylmethyl]-amide] — higher, 19%
- CN(C)C(c1cccc(F)c1)C1CCC(CCNC(=O)c2c(N(C)S(=O)(=O)c3ccc(Cl)c(Cl)c3)sc3c2CCCC3)CC1 (centres unmarked) [Example 51, 2-(3,4-dichloro-N-methylphenylsulfonamido)-N-(2-(4-((dimethylamino)(3-fluorophenyl)methyl)cyclohexyl)ethyl)-4,5,6,7-tetrahydrobenzo[b]thiophene-3-carboxamide] — lower, 1%
- CN(C)C(c1ccc(F)cc1)C1CCC(CCNC(=O)c2c(N(C)S(=O)(=O)c3ccc(Cl)c(Cl)c3)sc3c2CCCC3)CC1 (centres unmarked) [Example 52, 2-(3,4-dichloro-N-methylphenylsulfonamido)-N-(2-(4-((dimethylamino)(4-fluorophenyl)methyl)cyclohexyl)ethyl)-4,5,6,7-tetrahydrobenzo[b]thiophene-3-carboxamide] — lower, -22%
- CN(C)C(c1cccs1)C1CCC(CCNC(=O)c2c(N(C)S(=O)(=O)c3ccc(Cl)c(Cl)c3)sc3c2CCCC3)CC1 (centres unmarked) [Example 53, 2-(3,4-dichloro-N-methylphenylsulfonamido)-N-(2-(4-((dimethylamino)(thiophen-2-yl)methyl)cyclohexyl)ethyl)-4,5,6,7-tetrahydrobenzo[b]thiophene-3-carboxamide] — higher, 12%
- CN(C)C(c1ccc(F)cc1)C1CCC(NC(=O)C2Cc3ccccc3N2S(=O)(=O)c2ccc(Cl)c(Cl)c2)CC1 (centres unmarked) [Example 94, 1-(3,4-dichlorophenylsulfonyl)-N-(4-((dimethylamino)(4-fluorophenyl)methyl)cyclohexyl)indoline-2-carboxamide] — lower, -19%
- CN(C)C(CCc1ccccc1)C1CCC(CNC(=O)C2Cc3ccccc3N2S(=O)(=O)c2ccc(Cl)c(Cl)c2)CC1 (centres unmarked) [Example 96, 1-(3,4-dichlorophenylsulfonyl)-N-((4-(1-(dimethylamino)-3-phenylpropyl)cyclohexyl)methyl)indoline-2-carboxamide] — higher, 12%
- COc1ccc(S(=O)(=O)N(C)C2(C(=O)NCCC3CCC(C(c4ccccc4)N(C)C)CC3)CCCCC2)cc1 (centres unmarked) [Example 100, N-(2-(4-((dimethylamino)(phenyl)methyl)cyclohexyl)ethyl)-1-(4-methoxy-N-methylphenylsulfonamido)cyclohexanecarboxamide] — lower, -2%

Target: T2, human bradykinin receptor 1 (B1R) (Homo sapiens, UniProt P46663)
T2 construct: expressed in transfected cells; host or cells: CHO K1 cells
T2 sequence (P46663 1-353): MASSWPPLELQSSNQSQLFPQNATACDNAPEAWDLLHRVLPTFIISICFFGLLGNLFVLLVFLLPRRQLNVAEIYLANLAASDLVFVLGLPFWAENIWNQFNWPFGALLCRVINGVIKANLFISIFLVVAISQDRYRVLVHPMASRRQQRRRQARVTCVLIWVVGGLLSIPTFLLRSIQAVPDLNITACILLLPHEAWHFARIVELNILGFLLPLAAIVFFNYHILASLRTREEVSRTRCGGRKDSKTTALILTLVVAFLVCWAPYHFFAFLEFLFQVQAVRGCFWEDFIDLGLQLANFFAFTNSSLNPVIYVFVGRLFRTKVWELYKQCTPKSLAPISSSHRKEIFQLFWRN
Assay: Functional study on the bradykinin receptor 1 (B1R), human: FLIPR Ca2+ influx assay
Format: cell-based
Conditions: test substance 10 μM; CHO K1 cells transfected with human B1R; Lys-Des-Arg9-bradykinin at EC80; Ca2+ influx (Fluo-4, FLIPR); read-out: B1R antagonism, human [10 μM] % inhibition
Excerpt: Functional Study on the Human Bradykinin Receptor 1 (B1R)
as §1, §2, §3, §4, §5, §6, §7, §8

Point of comparison: `CN(C)C(c1ccccc1)C1CCC(NC(=O)CC2c3ccccc3CCN2S(=O)(=O)c2ccc(Cl)c(Cl)c2)CC1` (centres unmarked) [Example 10, 2-[2-(3,4-dichloro-benzenesulfonyl)-1,2,3,4-tetrahydro-isoquinolin-1-yl]-N-[4-(dimethylamino-phenyl-methyl)-cyclohexyl]-acetamide], inhibition at 10 µM 70.1%. Against it:
- COc1ccc(S(=O)(=O)N2CCc3ccccc3C2CC(=O)NC2CCC(C(c3ccccc3)N(C)C)CC2)cc1 (centres unmarked) [Example 9, N-[4-(dimethylamino-phenyl-methyl)-cyclohexyl]-2-[2-(4-methoxy-benzenesulfonyl)-1,2,3,4-tetrahydro-isoquinolin-1-yl]-acetamide] — higher, 105%
